Data: PMC11396368, “Free Radical Production Induced by Nitroimidazole Compounds Lead to Cell Death in Leishmania infantum Amastigotes” (Molecules, 2024)
Values joined by “and” are separate entries in the source; they are usually repeats but may differ in a detail not shown here. Identical values can stand only once. Like-named read-outs stand apart in the source and are kept apart here.

Columns and labels:
[1] = test system: L. infantum-iRFP axenic amastigotes; assay: Viability of L. infantum-iRFP axenic amastigotes (infrared fluorescence, 384-well); assay type: cell-based, Leishmania infantum; conditions: for EC50: Leishmania infantum, 72 h incubation, mean ± SD; for concentrations producing a decrease in fluorescence emission: axenic amastigotes, from 24 h until 72 h
[2] = test system: intramacrophage L. infantum-iRFP amastigotes; assay: Viability of L. infantum-iRFP intramacrophage amastigotes in infected murine splenocytes (infrared fluorescence, 384-well); assay type: cell-based, Leishmania infantum; conditions: for EC50: Leishmania infantum, Splenocyte, 72 h incubation, mean ± SD
[3] = test system: L. infantum-iRFP axenic amastigotes; assay: ROS production by axenic amastigotes (DCFH-DA, flow cytometry); assay type: cell-based, Leishmania infantum; conditions: 3 h treatment, 0.04 μM fexinidazole, 0.28 μM pretomanid (EC50)
[4] = molecular target: L. infantum TryR (Leishmania infantum, UniProt A4HSF7); assay: Trypanothione reductase enzymatic assay in parasite protein extracts; assay type: biochemical; conditions: up to 100 μM (thioridazine at 100 μM); T[S]2 0.075 mM, NADPH 0.20 mM
[5] = Cytotoxicity in HepG2 cells (alamarBlue); conditions: human
[6] = Cytotoxicity in RAW 264.7 cells (alamarBlue); conditions: mouse
[7] = test system: intracellular amastigotes of L donovani; conditions: cited from earlier work
[8] = CC50 HepG2 cells / EC50 axenic amastigotes
[9] = CC50 RAW 264.7 cells / EC50 axenic amastigotes
[10] = CC50 HepG2 cells / EC50 intramacrophage amastigotes
[11] = CC50 RAW 264.7 cells / EC50 intramacrophage amastigotes

L. infantum TryR, sequence (A4HSF7 entry or part of it): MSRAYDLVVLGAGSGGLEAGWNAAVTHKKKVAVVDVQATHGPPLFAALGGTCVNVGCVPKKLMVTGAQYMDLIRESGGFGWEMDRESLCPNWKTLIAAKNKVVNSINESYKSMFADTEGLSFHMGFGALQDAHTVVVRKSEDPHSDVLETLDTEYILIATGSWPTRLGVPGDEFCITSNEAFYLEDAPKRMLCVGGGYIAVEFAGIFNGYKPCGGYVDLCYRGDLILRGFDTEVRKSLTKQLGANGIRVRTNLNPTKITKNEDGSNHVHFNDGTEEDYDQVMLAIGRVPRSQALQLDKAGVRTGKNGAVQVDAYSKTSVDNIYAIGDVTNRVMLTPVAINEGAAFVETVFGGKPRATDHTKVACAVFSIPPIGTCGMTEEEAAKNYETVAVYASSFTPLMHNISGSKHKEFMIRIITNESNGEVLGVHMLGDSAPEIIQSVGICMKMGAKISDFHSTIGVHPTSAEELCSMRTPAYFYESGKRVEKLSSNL

Q: Which results are given for O=[N+]([O-])c1cn2c(n1)OC[C@@H](OCc1ccc(OC(F)(F)F)cc1)C2 [Pretomanid]?
A: SI1 (Selectivity Index) [1, 8]: >714.29; SI2 (Selectivity Index) [1, 9]: >714.29; EC50 [1]: 280 ± 20 nM; concentrations producing a decrease in fluorescence emission [1]: > 0.5 µM; SI1 (Selectivity Index) [2, 10]: >303.03; SI2 (Selectivity Index) [2, 11]: >303.03; EC50 [2]: 660 ± 80 nM; percentage of the stressed population (+ROS) ([3]; 0.01% (v/v) H2O2): 39.8%; unstressed population (−ROS) ([3]; 0.01% (v/v) H2O2): 59.9%; percentage of the stressed population (+ROS) ([3]; 0.01% (v/v) H2O2, listed as pretomanid): 39.8 ± 1.2%; inhibitory effect on L. infantum TryR [4]: neither fexinidazole nor pretomanid had any inhibitory effect; CC50 at 72 h [5]: > 200000 nM; CC50 at 72 h [6]: > 200000 nM

Q: With Cn1c([N+](=O)[O-])cnc1COc1ccc([S+](C)[O-])cc1 (stereo not drawn) [sulfoxide] as the compound, how does the “potency against intracellular amastigotes” value (from here on “potency”) [7] read?
A: The value was “potency similar to miltefosine”.

Q: For CSc1ccc2c(c1)N(CCC1CCCCN1C)c1ccccc1S2 (stereo not drawn) [thioridazine], which “inhibitory effect on L. infantum TryR” value [4] is on record?
A: Its value is “completely inhibited the enzyme”.

Q: With OO [H2O2] as the compound, how does the “percentage of the stressed population (+ROS)” value ([3]; 0.01% (v/v) H2O2) read?
A: Its value is 72.2%.

Q: What about the “unstressed population (−ROS)” value ([3]; 0.01% (v/v) H2O2) of the same compound?
A: Its value is 27.7%.

Q: With Cn1c([N+](=O)[O-])cnc1COc1ccc(S(C)(=O)=O)cc1 [sulfone] as the compound, how does the “potency” value [7] read?
A: The value was “potency similar to miltefosine”.

Q: With C[C@@H]1[C@H](O)[C@@H](C)/C=C/C=C/C=C/C=C/C=C/C=C/C=C/[C@H](O[C@@H]2O[C@H](C)[C@@H](O)[C@H](N)[C@@H]2O)C[C@@H]2O[C@](O)(C[C@@H](O)C[C@@H](O)[C@H](O)CC[C@@H](O)C[C@@H](O)CC(=O)O[C@H]1C)C[C@H](O)[C@H]2C(=O)O [Amp B] as the compound, how does the “SI1 (Selectivity Index)” value [1] read?
A: The value was 258.33.

Q: And the “SI2 (Selectivity Index)” value [1]?
A: The value was 24.82.

Q: And the EC50 [1]?
A: Its EC50 is 270 ± 20 nM.

Q: What about the “SI1 (Selectivity Index)” value [2] of the same compound?
A: Its value is 217.97.

Q: And the “SI2 (Selectivity Index)” value [2]?
A: Its value is 20.94.

Q: What about the EC50 [2] of the same compound?
A: Its EC50 is 320 ± 20 nM.

Q: And the CC50 at 72 h ([5]; HepG2 cells)?
A: The CC50 at 72 h was 69800 ± 13700 nM.

Q: And the CC50 at 72 h ([6]; RAW 264.7 macrophage cells)?
A: The CC50 at 72 h was 6700 ± 670 nM.

Q: For CSc1ccc(OCc2ncc([N+](=O)[O-])n2C)cc1 [Fexinidazole, 1-methyl-2-((p-(methylthio)-phenoxy)methyl)-5-nitroimidazole], which “SI1 (Selectivity Index)” value [1, 8] is on record?
A: The value was over 5000.00.

Q: What about the “SI2 (Selectivity Index)” value [1, 9] of the same compound?
A: Its value is over 5000.00.

Q: And the EC50 [1]?
A: Its EC50 is 40 nM.

Q: What about the “concentrations producing a decrease in fluorescence emission” value [1] of the same compound?
A: Its value is “above 0.125 μM”.

Q: And the “SI1 (Selectivity Index)” value [2, 10]?
A: The value was over 151.52.

Q: What about the “SI2 (Selectivity Index)” value [2, 11] of the same compound?
A: The value was over 151.52.

Q: What about the EC50 [2] of the same compound?
A: Its EC50 is 1320 ± 60 nM.

Q: What about the “percentage of the stressed population (+ROS)” value ([3]; 0.01% (v/v) H2O2) of the same compound?
A: Its value is 58.4 ± 1.5% and 58.4%.

Q: And the “unstressed population (−ROS)” value ([3]; 0.01% (v/v) H2O2)?
A: The value was 41.6%.

Q: What about the “inhibitory effect on L. infantum TryR” value [4] of the same compound?
A: The value was “neither fexinidazole nor pretomanid had any inhibitory effect”.

Q: And the “potency” value [7]?
A: Its value is “little activity”.

Q: And the CC50 at 72 h ([5]; HepG2 cells)?
A: The CC50 at 72 h was over 200000 nM.

Q: And the CC50 at 72 h ([6]; RAW 264.7 macrophage cells)?
A: The CC50 at 72 h was over 200000 nM.
